Patent publication US11179369B2, “Sustained release pharmaceutical compositions” (Wyeth, LLC, priority 2003, dated 2021)

Experiments:
Water solubility = format: physicochemical
Description: The tablet shapes and total tablet weights were kept same for all four different strengths and for the two different release rate tablets. […] In the formulations of aplindore fumarate 5.0 mg, 2.0 mg, 0.5 mg and 0.05 mg medium and slow release formulations, Lactose Fast Flo has been chosen as the water-soluble compensating excipient. […] It has been used in the 10.0 mg medium release formulation.

[1] = Side effects on dosing subject patients with aplindore; format: in vivo, human; conditions: correlated with time period of maximal plasma levels
From the text: In especially preferred embodiments of each of the formulations of the invention, the active compound is aplindore. Aplindore and pharmaceutically acceptable salts thereof are particularly well-suited to treating various disorders of the central nervous system and more particularly to those central nervous disorders relating to the dopaminergic system. Because aplindore (or any drug) requires a sufficient exposure level to achieve its desired effects, the drug must be dosed in a manner sufficient to achieve the particular blood plasma level over a period of time deemed sufficient to meet the clinical objective sought. […] Simply reducing the dose would not always be satisfactory since, while the side effects might lessen or disappear, the overall drug exposure levels might not be satisfactory to treat the particular condition.

SMILES | water solubility (Water solubility) | side effects [1]
O=C(O)/C=C/C(=O)O.O=C1Cc2c(ccc3c2O[C@@H](CNCc2ccccc2)CO3)N1 [aplindore fumarate] | highly water-soluble | –
O=C1Cc2c(ccc3c2O[C@@H](CNCc2ccccc2)CO3)N1 [aplindore, S-2-[(Benzylamino)-methyl]-2,3,8,9-tetrahydro-7H-1,4-dioxino[2,3-e]indol-8-one] | – | side effects including nausea and vomiting
